Data on five compounds can be found in patent US10039839B2, “Compounds that participate in cooperative binding and uses thereof” (Warp Drive Bio, Inc., priority 2015, dated 2018).

Square brackets hold non-standard residues; d marks the D form. Peptide text beside a SMILES is read from it. MeBmt = C/C=C/C[C@@H](C)[C@@H](O)[C@H](NC)C(=O)O; NMepY = CN[C@@H](Cc1ccc(OP(=O)(O)O)cc1)C(=O)O; NMeF = CN[C@@H](Cc1ccccc1)C(=O)O; NMeL = CN[C@@H](CC(C)C)C(=O)O; NMeV = CN[C@H](C(=O)O)C(C)C; Abu = CC[C@H](N)C(=O)O; Sar = CNCC(=O)O Some results are limits rather than exact numbers.

Test [1] deals with T1, CEP250 (Homo sapiens, UniProt Q9BV73).
T1 construct: CEP25011.4 (residues 2134-2231) (in-house); made in house
The test can be described thus: ITC binding of FKBP12-compound binary complexes to CEP250. The note with it: FKBP12 10 μM + ligand 20 μM, 298 K. As to the method: This protocol utilizes Isothermal Titration calorimetry (ITC) to directly measure the heat change associated with binding of FKBP12-F2 and FKBP12-F11 binary complexes to CEP250. Measurement of the heat change allows accurate determination of association constants (Ka), reaction stoichiometry (N), and the change in binding enthalpy (ΔH).
FKBP12 stock solution is diluted to 10 μM in assay buffer (1% DMSO final). Compound is added to FKBP12 to 20 μM (1% DMSO final), and binary complex is filled into the reaction cell of the ITC device after 5-10 min pre-incubation time. […] A control experiment in the absence of compound is also run to determine the heat associated with operational artifacts and the dilution of titrant as it is injected from the syringe into the reaction cell.
Data were fitted with the Origin ITC200 software according to the following procedure: • 1) Read raw data • 2) In “mRawITC”: adjust integration peaks and baseline, integrate all peaks • 3) In “Delta H”—data control: remove bad data (injection #1 and other artifacts), subtract straight line (background subtraction) • 4) In “Delta H”—model fitting: select one set of sites model, perform fitting with Levenberg-Marquardt algorithm until Chi Square is not reduced further, finish with “done” (parameters N, Ka and ΔH are calculated based on fitting)

In test [2] the target is T1, CEP250. The test can be described thus: SPR binding of CEP250 (analyte) to immobilized FKBP12-F2 binary complex. On the procedure: Experiments are performed at 25° C.
(In general: Surface plasmon resonance follows binding to a sensor surface in real time, without labels.)

Test [3] concerns the target T2, CEP250 (Homo sapiens, UniProt P62942+Q9BV73).
T2 construct: CEP25011.4 (residues 2134-2231) (in-house); made in house
Kind of test: Crystal structure analysis of FKBP12-compound-CEP250 ternary complexes. Particulars: FKBP12-compound-CEP25011.4 crystal structure. The text has this:
As used herein, the term “buried surface area” refers to the surface area of a protein or a complex that is not exposed to solvent. Buried surface area may be determined by methods known in the art including by calculating inaccessibility to solvent. Inaccessibility to solvent may be calculated computationally with a rolling probe of 1.4 A, using a program such as PDBePISA release version 1.48 (http://www.ebi.ac.uk/pdbe/pisa/).
This protocol describes the crystallization and structure determination method for structures of FKBP12-Compound 2-CEP250 and FKBP12-F11-CEP250 ternary complexes.
A 3:1 molar excess of FKBP12-F2 or FKBP12-F11 binary complex is added to CEP25011.4 and incubated at 4° C. overnight to complete ternary complex formation. Pure ternary complex is isolated by gel filtration purification on a Superdex 200 column in 12.5 mM HEPES pH 7.4, 75 mM NaCl. Purified complex (at 10-20 mg/ml) is subjected to crystallization at 22° C. using sitting drop vapor diffusion. FKBP12-F2-CEP250 crystals grow in a well solution containing 0.2 M sodium malonate, 0.1 M HEPES 7.0, 21% PEG 3350. FKBP12-F11-CEP250 crystals grow in a well solution containing 0.1 M Tris pH 8.5, 0.2 M trimethylamine N-oxide, 22-24% PEG2000 MME. For data collection crystals are transferred to a solution containing mother liquor supplemented with 20-25% glycerol, and then frozen in liquid nitrogen. Diffraction datasets are collected at the Advanced Photon Source (APS) and processed with the HKL program. Molecular replacement solutions are obtained using the program PHASER in the CCP4 suite, using the published structure of FKBP12 (PDB-ID 1FKD) as a search model. Subsequent model building and refinement are performed according to standard protocols with the software packages CCP4 and COOT.

Another test concerns the target FKBP12 (Homo sapiens, UniProt P62942). Particulars: read-out: Ka.
For the next test, the target named is T3, Cyclophilin A (Homo sapiens, UniProt P62937).
T3 construct: made in house
T3 sequence (P62937 whole entry, species assumed): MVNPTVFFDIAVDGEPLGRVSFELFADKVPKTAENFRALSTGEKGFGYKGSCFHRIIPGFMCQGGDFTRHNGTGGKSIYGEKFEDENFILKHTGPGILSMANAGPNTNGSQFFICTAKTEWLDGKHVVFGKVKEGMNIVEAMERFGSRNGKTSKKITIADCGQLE
Kind of test: biochemical. Format: binding. On the procedure:
This protocol utilizes Perkin Elmers AlphaLISA technology platform to detect cyclosporine analogues by measuring the inhibition of binding of biotinylated Cyclosporin A to FLAG tagged Cyclophilin A.
Add 20 uL of 6 nM Biotinylated CsA working stock to each well of the 96-well plate. Add 1 uL of test compound (100% DMSO) to each well of the plate using the Janus MTD head and P20 tips (except control wells). Add 1 uL of DMSO to negative control wells and 1 uL of 500 uM Cyclosporin A solution to positive control wells. In the dark, add 20 uL of combined Donor/Acceptor beads to each well. Incubate in the dark for 30 minutes at room temperature. […] Incubate in the dark for 60 minutes at room temperature.

For another test, the system named is HeLa-Cyclophilin A cells. The test can be described thus: Biosensor cell permeability assay, cyclophilin binding compounds. Format: cell-based. Particulars: 72 hrs. As to the method:
This protocol utilizes a modified FKBP or cyclophilin destabilizing mutant to determine the bioactivity of FKBP binding compounds or cyclophilin binding compounds in whole cell assay.
Plate HeLa-FKBP12 cells (for FKBP binding compounds) or HeLa-Cyclophilin A cells (for cyclophilin binding compounds) and seed overnight at 5 k/well (approximately ˜18 hrs.). Using a multi-channel pipet, take out the old media and add ˜125 ul of new media with compounds. Compounds are diluted using DMEM without Phenol Red, 10% FBS, 1× Sodium Pyruvate, 1× Glutamax. Add 125 ul of media with compound per well.
Cell binding/permeability is calculated in fold-change (Total RFU of treated samples/total RFU of DMSO treated samples or total RFU above background (Total RFU minus total RFU of DMSO treated samples).

[4] abbreviates: FKBP12/F2 complex to CEP25011.4 (residues 2134-2231).
Setting [5] is: FKBP12/F2 complex to CEP25029.2 (residues 1982-2231).

T2 sequence (Q9BV73 2134-2231): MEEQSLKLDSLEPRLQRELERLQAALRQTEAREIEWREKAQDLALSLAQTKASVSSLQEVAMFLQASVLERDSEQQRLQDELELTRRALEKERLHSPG
T2 sequence (P62942 whole entry, the tested form may be a part): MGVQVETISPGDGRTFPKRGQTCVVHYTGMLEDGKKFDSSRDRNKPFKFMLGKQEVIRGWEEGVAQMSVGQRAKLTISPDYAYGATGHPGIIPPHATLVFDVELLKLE
Sequence of FKBP12 (P62942 whole entry, species assumed): as the sequence (P62942 whole entry, the tested form may be a part) above

Take `CC[C@H](Cc1ccccc1)[C@@H]1/C=C/C/C=C/C[C@@H](C)[C@H](O)[C@@H](C)[C@@H]2CC[C@@H](C)C(=O)C(O)(O2)C(=O)N2CCCC[C@H]2C(=O)O1` [F2, (2S)-1-((4R,7S)-7-((2R,3S,4R,6E,9E,11R,12R)-12-benzyl-3,11-dihydroxy-4-methyltetradeca-6,9-dien-2-yl)-2-hydroxy-4-methyl-3-oxooxepane-2-carbonyl)piperidine-2-carboxylic acid C-11 lactone]: on CEP250 [1] (CEP25011.4 68 μM), the ΔG is listed as −40.75 kJ*mol−mol−1, the ΔH was −49.37 kJ*mol−mol−1 and the “−T*ΔS” value amounted to 8.62 kJ*mol−mol−1. In addition, at CEP250 [1] (CEP25029.4 118 μM), the ΔG is given as −38.41 kJ*mol−mol−1, the ΔH is −52.21 kJ*mol−mol−1 and the “−T*ΔS” value is 13.80 kJ*mol−mol−1. For the same compound, at CEP250 [2] (setting [4]), the “dissociation rate constant (koff)” value is reported as 3.09×10^−3 1/S and the affinity, expressed as Kd, was 5.4 nM. On CEP250 [2] (setting [5]), the “dissociation rate constant (koff)” value is 9.25×10^−5 1/S and the Kd is 0.29 nM.
With `CC[C@H](Cc1ccccc1)[C@@H]1CCCCCC[C@@H](C)[C@H](O)[C@@H](C)[C@@H]2CC[C@@H](C)C(=O)C(O)(O2)C(=O)N2CCCCC2C(=O)O1` (stereo partly drawn) [F11, (2S)-1-((4R,7S)-7-((2R,3S,4R,11S,12R)-12-benzyl-3,11-dihydroxy-4-methyltetradecan-2-yl)-2-hydroxy-4-methyl-3-oxooxepane-2-carbonyl)piperidine-2-carboxylic acid C-11 lactone], on CEP250 [1] (CEP25011.4 68 μM), the ΔG is reported as −40.36 kJ*mol−mol−1, the ΔH is −47.78 kJ*mol−mol−1 and the “−T*ΔS” value is given as 7.41 kJ*mol−mol−1. Also, on CEP250 [1] (CEP25029.4 118 μM), the ΔG is −36.74 kJ*mol−mol−1, the ΔH was −58.48 kJ*mol−mol−1 and the “−T*ΔS” value was found to be 21.73 kJ*mol−mol−1. Moreover, at CEP250 [3], the “buried surface area of CEP250 contributed by FKBP12” value is listed as 590 Å^2, the “total buried surface area of CEP250” value is on record as 831 Å^2 and the “total buried surface area of the ternary complex” value is listed as 1648 Å^2. The kon at FKBP12 worked out at 567000 M⁻¹ s⁻¹.
Regarding `C/C=C/C[C@@H](C)[C@@H](O)[C@H]1C(=O)N[C@@H](CC)C(=O)N(C)CC(=O)N(C)[C@@H](Cc2ccc(OP(=O)(O)O)cc2)C(=O)N[C@@H](C(C)C)C(=O)N(C)[C@@H](CC(C)C)C(=O)N[C@@H](C)C(=O)N[C@H](C)C(=O)N(C)[C@@H](CC(C)C)C(=O)N(C)[C@@H](CC(C)C)C(=O)N(C)[C@@H](C(C)C)C(=O)N1C` [C41] (cyclo([MeBmt][Abu][Sar][NMepY]V[NMeL]A[dA][NMeL][NMeL][NMeV])), the results for the IC50 on Cyclophilin A and in the test with HeLa-Cyclophilin A cells were less than 2000 nM and greater than 3000 nM, respectively.
For the compound `C/C=C/C[C@@H](C)[C@@H](O)[C@H]1C(=O)N[C@@H](CC)C(=O)N(C)CC(=O)N(C)[C@@H](C(C)C)C(=O)N[C@@H](C(C)C)C(=O)N(C)[C@@H](CC(C)C)C(=O)N[C@@H](C)C(=O)N[C@H](C)C(=O)N(C)[C@@H](CC(C)C)C(=O)N(C)[C@@H](CC(C)C)C(=O)N(C)[C@@H](C(C)C)C(=O)N1C` [C40] (cyclo([MeBmt][Abu][Sar][NMeV]V[NMeL]A[dA][NMeL][NMeL][NMeV])), the IC50 on Cyclophilin A was less than 2000 nM; with HeLa-Cyclophilin A cells, less than 3000 nM.
Compound `C/C=C/C[C@@H](C)[C@@H](O)[C@H]1C(=O)N[C@@H](CC)C(=O)N(C)CC(=O)N(C)[C@@H](Cc2ccccc2)C(=O)N[C@@H](C(C)C)C(=O)N(C)[C@@H](CC(C)C)C(=O)N[C@@H](C)C(=O)N[C@H](C)C(=O)N(C)[C@@H](CC(C)C)C(=O)N(C)[C@@H](CC(C)C)C(=O)N(C)[C@@H](C(C)C)C(=O)N1C` [C36] (cyclo([MeBmt][Abu][Sar][NMeF]V[NMeL]A[dA][NMeL][NMeL][NMeV])) returned an IC50 in the test with HeLa-Cyclophilin A cells of less than 3000 nM.

As a reminder, the Kd is a measure of binding affinity in units of concentration. A higher Kd goes with weaker binding. The IC50 is the point on the concentration scale where inhibition reaches its midpoint.
